The values below come from patent US20240051985A1, “METTL3 MODULATORS” (ACCENT THERAPEUTICS, INC., priority 2020, published 2024).

METTL3/METTL14, sequence (Q86U44 whole entry, species assumed): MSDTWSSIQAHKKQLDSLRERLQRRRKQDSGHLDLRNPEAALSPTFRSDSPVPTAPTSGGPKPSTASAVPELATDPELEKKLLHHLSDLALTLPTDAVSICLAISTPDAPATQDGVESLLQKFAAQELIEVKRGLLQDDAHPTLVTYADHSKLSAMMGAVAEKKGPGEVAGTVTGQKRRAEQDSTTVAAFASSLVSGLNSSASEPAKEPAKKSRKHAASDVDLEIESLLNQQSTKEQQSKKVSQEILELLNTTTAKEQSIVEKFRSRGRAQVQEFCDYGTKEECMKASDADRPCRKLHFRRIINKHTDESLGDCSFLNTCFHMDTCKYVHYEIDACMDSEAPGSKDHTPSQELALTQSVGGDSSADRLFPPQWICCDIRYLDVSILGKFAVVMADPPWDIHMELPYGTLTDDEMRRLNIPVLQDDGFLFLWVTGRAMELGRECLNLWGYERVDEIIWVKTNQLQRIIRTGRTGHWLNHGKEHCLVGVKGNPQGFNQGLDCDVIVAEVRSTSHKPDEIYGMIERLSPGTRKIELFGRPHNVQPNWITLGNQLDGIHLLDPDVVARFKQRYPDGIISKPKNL
METTL3/METTL14, sequence (Q9HCE5 whole entry partner, species assumed): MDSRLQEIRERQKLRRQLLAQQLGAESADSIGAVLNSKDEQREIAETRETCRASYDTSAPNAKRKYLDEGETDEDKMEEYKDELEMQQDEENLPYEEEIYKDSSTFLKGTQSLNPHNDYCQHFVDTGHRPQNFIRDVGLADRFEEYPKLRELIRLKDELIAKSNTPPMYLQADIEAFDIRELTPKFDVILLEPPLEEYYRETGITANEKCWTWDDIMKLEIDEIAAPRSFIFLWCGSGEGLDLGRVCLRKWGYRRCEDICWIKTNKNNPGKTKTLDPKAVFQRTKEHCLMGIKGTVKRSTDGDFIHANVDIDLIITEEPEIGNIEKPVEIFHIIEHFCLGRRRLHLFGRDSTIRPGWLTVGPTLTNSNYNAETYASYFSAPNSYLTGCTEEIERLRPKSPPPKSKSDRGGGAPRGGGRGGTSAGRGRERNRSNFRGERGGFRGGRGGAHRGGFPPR

The first assay has as its target METTL3/METTL14 (Homo sapiens, UniProt Q86U44). Kind of assay: METTL3-14 standard enzyme assay (3H-SAM flashplate). The note with it: Table 3; METTL3 biochemical assay. The method, then: METTL3-14 Standard Enzyme Assay
Assays were performed in a 25 μl-volume in 384-well V-bottom polypropylene microplates (Greiner Bio-One, cat. No. 781280) at ambient temperature. Optimized 1× assay buffer was 20 mM HEPES pH 7.5, 50 mM KCl, 250 μM MgCl2, 1 mM DTT, 0.01% Tween, 0.01% BSG, 0.004 U/μl RNAseOUT (cat. No. 10777019, ThermoFisher Scientific, Waltham, MA). For compound screening METTL3/METTL14 (final concentration, f.c.=2.5 nM) was added using a Multidrop Combi (ThermoFisher Scientific, Waltham, MA) and preincubated for 5 min. Reactions were started by adding 3′ biotinylated RNA (UCUGGACUAAA-biotin) (f.c.=100 nM) and 3H-SAM (f.c.=100 nM) substrates. Reactions proceeded for 30 minutes and were quenched with excess non-radioactive SAM (f.c.=15 μM). The reactions were then transferred to streptavidin-coated flashplates and incubated for 2 hours at 25° C. Following two washing cycles with 0.1% Tween-20, the plates were sealed and read on a TopCount (PerkinElmer, Waltham, MA) plate-based scintillation counter. For determination of kinetic parameters, reaction times were optimized so that measurements were taken during the initial velocity phase of the reaction.
One may read the IC50 as the point on the concentration scale where inhibition reaches its midpoint. `Nc1ncnc2c1c(-n1cccn1)cn2[C@H]1C[C@H](O)[C@@H](C(=O)Nc2ccc3ccc(NC4CCC4)nc3c2)O1` [Compound I-16] yielded an IC50 of under 10 nM.

`Nc1ncnc2c1c(-n1cccn1)cn2[C@H]1C[C@H](O)[C@@H](C(=O)Nc2cc(NC3CCC3)ccn2)O1` [Compound I-17, (2S,3S,5R)-5-[4-amino-5-(1H-pyrazol-1-yl)-7H-pyrrolo[2,3-d]pyrimidin-7-yl]-N-[4-(cyclobutylamino)pyridin-2-yl]-3-hydroxyoxolane-2-carboxamide]: the IC50 is at least 1000 nM.

Staying with this assay, now noted: Table 4; METTL3 biochemical assay.
In turn, `Cn1ccc(-c2cn([C@@H]3O[C@H](C(=O)Nc4ccc(Oc5ccccc5)cc4)[C@@H](O)[C@H]3O)c3ncnc(N)c23)n1` [Compound I-100] displayed an IC50 of 100 to 1000 nM.

`Cn1ccc(-c2cn([C@@H]3O[C@H](C(=O)NCCC4CCOCC4)[C@@H](O)[C@H]3O)c3ncnc(N)c23)n1` [Compound I-96] came in with an IC50 of 100 to 1000 nM.

Take `CNC(=O)c1ccc(NC(=O)[C@H]2O[C@@H](n3cc(-c4ccn(C)n4)c4c(N)ncnc43)[C@H](O)[C@@H]2O)cc1` [Compound I-136]: the IC50 is 100 to 1000 nM.

In turn, `Cn1ccc(-c2cn([C@@H]3O[C@H](C(=O)NCc4ccc(OC(F)(F)F)cc4)[C@@H](O)[C@H]3O)c3ncnc(N)c23)n1` [Compound I-84] returned an IC50 of at least 1000 nM.

`Cn1ccc(-c2cn([C@@H]3O[C@H](C(=O)Nc4nccc5ccccc45)[C@@H](O)[C@H]3O)c3ncnc(N)c23)n1` [Compound I-78] registered a 50% inhibitory concentration (IC50) of at least 1000 nM.

Compound `Cc1cc(F)ccc1NC(=O)[C@H]1O[C@@H](n2cc(-c3ccn(C)n3)c3c(N)ncnc32)[C@H](O)[C@@H]1O` [Compound I-117] yielded an IC50 of 100 to 1000 nM.

In turn, `CC(=O)Nc1ccccc1NC(=O)[C@H]1O[C@@H](n2cc(-c3ccn(C)n3)c3c(N)ncnc32)[C@H](O)[C@@H]1O` [Compound I-130] returned an IC50 of 100 to 1000 nM.

With `Cn1ccc(-c2cn([C@@H]3O[C@H](C(=O)Nc4ccc(C(=O)N5CCCCC5)cc4)[C@@H](O)[C@H]3O)c3ncnc(N)c23)n1` [Compound I-135], the 50% inhibitory concentration (IC50) is 100 to 1000 nM.

Consider `CC(CCc1ccccc1)NC(=O)[C@H]1O[C@@H](n2cc(-c3ccn(C)n3)c3c(N)ncnc32)[C@H](O)[C@@H]1O` (stereo partly drawn) [Compound I-137], for which the IC50 is 100 to 1000 nM.

On to `Cn1ccc(-c2cn([C@@H]3O[C@H](C(=O)Nc4ccc(-n5cnnn5)cc4)[C@@H](O)[C@H]3O)c3ncnc(N)c23)n1` [Compound I-138], for which the IC50 lay in the range of 100 to 1000 nM.

In turn, `Cc1cc(C#N)ccc1NC(=O)[C@H]1O[C@@H](n2cc(-c3ccn(C)n3)c3c(N)ncnc32)[C@H](O)[C@@H]1O` [Compound I-113] returned a half-inhibitory concentration (IC50) of 100 to 1000 nM.

`Cc1cc(NC(=O)[C@H]2O[C@@H](n3cc(-c4ccn(C)n4)c4c(N)ncnc43)[C@H](O)[C@@H]2O)n(C)n1` [Compound I-86] registered an IC50 of at least 1000 nM.

Turning to `COc1ccccc1[C@H](C)NC(=O)[C@H]1O[C@@H](n2cc(-c3ccn(C)n3)c3c(N)ncnc32)[C@H](O)[C@@H]1O` [Compound I-119], the half-inhibitory concentration (IC50) is 100 to 1000 nM.

For `COc1ccccc1CNC(=O)[C@H]1O[C@@H](n2cc(-c3ccn(C)n3)c3c(N)ncnc32)[C@H](O)[C@@H]1O` [Compound I-97], the IC50 was in the range of 100 to 1000 nM.

Take `Cc1ccc(NC(=O)[C@H]2O[C@@H](n3cc(-c4ccn(C)n4)c4c(N)ncnc43)[C@H](O)[C@@H]2O)cc1Cl` [Compound I-71]: the IC50 was at least 1000 nM.

Turning to `Cn1ccc(-c2cn([C@@H]3O[C@H](C(=O)NCCc4ccc(-c5ccccc5)cc4)[C@@H](O)[C@H]3O)c3ncnc(N)c23)n1` [Compound I-116], the IC50 was 100 to 1000 nM.

Regarding `CN(C)S(=O)(=O)c1cccc(NC(=O)[C@H]2O[C@@H](n3cc(-c4ccn(C)n4)c4c(N)ncnc43)[C@H](O)[C@@H]2O)c1` [Compound I-90], the IC50 was at least 1000 nM.

The compound `Cn1ccc(-c2cn([C@@H]3O[C@H](C(=O)NCCc4ccncc4)[C@@H](O)[C@H]3O)c3ncnc(N)c23)n1` [Compound I-112] registered a concentration for half-maximal inhibition (IC50) of 100 to 1000 nM.

As for `Cn1ccc(-c2cn([C@@H]3O[C@H](C(=O)Nc4cccc(C#N)c4)[C@@H](O)[C@H]3O)c3ncnc(N)c23)n1` [Compound I-105], the IC50 was 100 to 1000 nM.

In turn, `COc1ccc(NC(=O)[C@H]2O[C@@H](n3cc(-c4ccn(C)n4)c4c(N)ncnc43)[C@H](O)[C@@H]2O)cc1Cl` [Compound I-140] displayed an IC50 of 10 to 100 nM.

For the compound `Cn1ccc(-c2cn([C@@H]3O[C@H](C(=O)Nc4ccc5c(c4)OCCCO5)[C@@H](O)[C@H]3O)c3ncnc(N)c23)n1` [Compound I-124], the IC50 lay in the range of 100 to 1000 nM.

In the case of `CCc1cccc(NC(=O)[C@H]2O[C@@H](n3cc(-c4ccn(C)n4)c4c(N)ncnc43)[C@H](O)[C@@H]2O)n1` [Compound I-85], the IC50 was at least 1000 nM.

On to `Cn1ccc(-c2cn([C@@H]3O[C@H](C(=O)Nc4cccc(C(F)(F)F)c4)[C@@H](O)[C@H]3O)c3ncnc(N)c23)n1` [Compound I-76], for which the half-inhibitory concentration (IC50) was at least 1000 nM.

`Cn1ccc(-c2cn([C@@H]3O[C@H](C(=O)NC4Cc5ccccc5C4)[C@@H](O)[C@H]3O)c3ncnc(N)c23)n1` [Compound I-126] registered an IC50 of 100 to 1000 nM.

The compound `Cn1ccc(-c2cn([C@@H]3O[C@H](C(=O)NCCc4ccc(Cl)cc4)[C@@H](O)[C@H]3O)c3ncnc(N)c23)n1` [Compound I-111] showed a 50% inhibitory concentration (IC50) of 100 to 1000 nM.

The compound `Cc1cccnc1NC(=O)[C@H]1O[C@@H](n2cc(-c3ccn(C)n3)c3c(N)ncnc32)[C@H](O)[C@@H]1O` [Compound I-93] came in with a 50% inhibitory concentration (IC50) of at least 1000 nM.

The compound `Cn1ccc(-c2cn([C@@H]3O[C@H](C(=O)NC4CCN(S(C)(=O)=O)CC4)[C@@H](O)[C@H]3O)c3ncnc(N)c23)n1` [Compound I-95] returned a 50% inhibitory concentration (IC50) of 100 to 1000 nM.

On to `Cn1ccc(-c2cn([C@@H]3O[C@H](C(=O)Nc4cnccn4)[C@@H](O)[C@H]3O)c3ncnc(N)c23)n1` [Compound I-91], for which the IC50 is at least 1000 nM.

`Cn1ccc(-c2cn([C@@H]3O[C@H](C(=O)Nc4ccc(OC(F)F)cc4)[C@@H](O)[C@H]3O)c3ncnc(N)c23)n1` [Compound I-132]: the IC50 is 100 to 1000 nM.

Regarding `CC(C)OCCNC(=O)[C@H]1O[C@@H](n2cc(-c3ccn(C)n3)c3c(N)ncnc32)[C@H](O)[C@@H]1O` [Compound I-73], the IC50 is at least 1000 nM.

`Cn1cc(NC(=O)[C@H]2O[C@@H](n3cc(-c4ccn(C)n4)c4c(N)ncnc43)[C@H](O)[C@@H]2O)cn1` [Compound I-104] gave an IC50 of 100 to 1000 nM.

For `Cc1nsc(NC(=O)[C@H]2O[C@@H](n3cc(-c4ccn(C)n4)c4c(N)ncnc43)[C@H](O)[C@@H]2O)n1` [Compound I-83], the 50% inhibitory concentration (IC50) was at least 1000 nM.

In turn, `Cc1ccc(Cl)c(NC(=O)[C@H]2O[C@@H](n3cc(-c4ccn(C)n4)c4c(N)ncnc43)[C@H](O)[C@@H]2O)c1` [Compound I-72] came in with an IC50 of at least 1000 nM.

As to `Cn1ccc(-c2cn([C@@H]3O[C@H](C(=O)NCCC4CCCCC4)[C@@H](O)[C@H]3O)c3ncnc(N)c23)n1` [Compound I-120], the half-inhibitory concentration (IC50) fell in the range of 100 to 1000 nM.

Compound `Cn1ccc(-c2cn([C@@H]3O[C@H](C(=O)Nc4ccc(Br)c(Cl)c4)[C@@H](O)[C@H]3O)c3ncnc(N)c23)n1` [Compound I-63] gave an IC50 of at least 1000 nM.

As to `CN1CCN(c2ccc(NC(=O)[C@H]3O[C@@H](n4cc(-c5ccn(C)n5)c5c(N)ncnc54)[C@H](O)[C@@H]3O)nc2)CC1` [Compound I-127], the IC50 was 100 to 1000 nM.

The compound `Cn1ccc(-c2cn([C@@H]3O[C@H](C(=O)Nc4ccc(-c5ccccc5)cn4)[C@@H](O)[C@H]3O)c3ncnc(N)c23)n1` [Compound I-79] showed an IC50 of at least 1000 nM.
